Where a name gives a salt, the structure may show the parent alone.
Tests used:
[1] = system: platelet aggregation induced by PAF in rabbit platelets; assay: Inhibition of platelet aggregation induced by PAF (Test 1); format: cell-based, male New Zealand albino rabbits; settings: concentration needed to inhibit platelet aggregation by 50%, PAF 16 nM final, rabbit platelet rich plasma
Description: Test 1: Inhibition of Platelet Aggregation Induced by PAF.
The blood is obtained by cardiac puncture of male New Zealand albino rabbits (between 2 and 2.5 Kg of weight) and coagulation is prevented by adding 1 part of 3.16% sodium citrate dihydrate in 9 parts of blood. The platelet rich plasma (PRP) is prepared by blood centrifugation at 250 xg for 10 min. at 4° C. and it is diluted with platelet poor plasma (PPP) obtained by additional centrifugation at […] for 10 min. The amount of platelets is adjusted to […]. The platelet aggregation induced by PAF (C18, prepared in our laboratory) (16 nM, final) is determined by the Born nephelometric technique (J. Physiol., 1962, 162, 67) using a aggregometer Chronolog 500. The activities of the inhibitors are expressed as IC50, that is to say the concentration of the drug needed to inhibit the platelet aggregation in a 50%.

[2] = system: hypotension induced by PAF; assay: Inhibition of the hypotensive effect induced by PAF in normotense rats (Test 2); format: in vivo, Male Sprague Dawley rats; settings: i.v., 3 min before PAF (0.5 mg/Kg, i.v.), anesthetized rats
Description: Test 2--Inhibition of the Hypotensive Effect Induced by PAF in normotense Rats.
(§1) Male Sprague Dawley rats, of 180-220 g of weight, anesthetized with sodium pentobarbital (50 mg/Kg, i.p. 1 mL/100 g) have been used. In order to measure the average arterial pressure, a polyethylene catheter is introduced into the carotide artery. The arterial pressure is recorded with the help of a transducer connected with a R611 Beckman polygraph. The tested compounds are administrated through the femoral vein 3 min. Before the injection of PAF (0.5 mg/Kg, i.v.).

[3] = system: hypotension induced by PAF; assay: Reversion of the hypotensive effect induced by PAF in normotense rats (Test 3); format: in vivo, Male Sprague Dawley rats; settings: Rattus norvegicus, iv, 1 min; i.v., 1 min after the injection of PAF; read-out: ID50, dose required to reduce in a 50% the time of recovery of the basal blood pressure
Description: as §1
Test 3--Reversion of the Hypotensive Effect Induced by PAF in Normotense Rats
The experimental design is similar to that of test 2, except in that the compound to be tested is given by intravenous injection 1 min. After the injection of PAF. In the controls the blood pressure recovers 80% of the basal level 6.2 min. after the injection of PAF. The effect of the tested compounds is expressed as the dose required to reduce in a 50% the time of recovery of the basal blood pressure (ID50).

[4] = Oryctolagus cuniculus, Platelet

Row | IC50 [1, 4] | SMILES | % Inhibition of the hypotension induced by PAF ([2]; compound 5 mg/Kg) | also measured
1 | 14 µM | CCCCCCCCCCCCCCCCCC1OCC(COCCCCCCCC[n+]2ccccc2)O1 (racemic) [Compound 20, (±)-cis, trans-1-[8-[(2-heptadecyl-1,3-dioxolane-4-yl)methoxy]octyl]pyridinium 4-methylbenzenesulfonate] |  | 
2 | 21 µM | CCCCCCCCCCCCCCCCCC1OCC(COC(=O)CCCCC[N+]2(C)CCOCC2)O1 (racemic) [Compound 30, (±)-cis, trans-4-[6-[(2-heptadecyl-1,3-dioxolane-4-yl)methoxy]-6-oxohexyl]-4-methylmorpholinium 4-methylbenzenesulfonate] |  | 
3 | 3.3 µM | CCCCCCCCCCCCCCCCCC1OCC(COCCCCCC[n+]2ccccc2)O1 (racemic) [Compound 6, (±)-cis, trans-1-[6-[(2-heptadecyl-1,3-dioxolane-4-yl)methoxy]hexyl]pyridinium 4-methylbenzenesulfonate] | 42% | 
4 | 18 µM | CCCCCCCCCCCCCCCCCC1OCC(COCCCCCC[N+]2(C)CCOCC2)O1 (racemic) [Compound 9, (±)-cis, trans-4-[6-[(2-heptadecyl-1,3-dioxolane-4-yl)methoxy]hexyl]-4-methylmorpholinium 4-methylbenzenesulfonate] |  | 
5 | 3.1 µM | CCCCCCCCCCCCCCCCCC1OCC(COCCCCCC[n+]2cscc2C)O1 (racemic) [Compound 7, (±)-cis, trans-3-[6-[(2-heptadecyl-1,3-dioxolane-4-yl)methoxy]hexyl]-4-methylthiazolium 4-methylbenzenesulfonate] |  | 
6 | 6 µM | CCCCCCCCCCCCCCCCCC1OCC(COCCCC[n+]2ccsc2)O1 (racemic) [Compound 2, (±)-cis, trans-3-[4-[(2-heptadecyl-1,3-dioxolane-4-yl)methoxy]butyl]thiazolium 4-methylbenzenesulfonate] |  | 
7 | 1.4 µM | CCCCCCCCCCCCCCCCCC1OCC(COCCCCCC[n+]2ccsc2)O1 (racemic) [Compound 8, (±)-cis, trans-3-[6-[(2-heptadecyl-1,3-dioxolane-4-yl)methoxy]hexyl]thiazolium 4-methylbenzenesulfonate] | 88% | % Inhibition of the hypotension induced by PAF ([2]; compound 1.25 mg/Kg): 46%; % Inhibition of the hypotension induced by PAF ([2]; compound 2.5 mg/Kg): 75%; ED50 [3]: 0.3 mg/kg
8 | 5.1 µM | CCCCCCCCCCCCCCCCCC1OCC(COCCCCCCCC[n+]2ccsc2)O1 (racemic) [Compound 22, (±)-cis, trans-3-[8-[(2-heptadecyl-1,3-dioxolane-4-yl)methoxy]octyl]thiazolium 4-methylbenzenesulfonate] |  | 
9 | 5.5 µM | CCCCCCCCCCCCCCCCCC1OCC(COCCCCCC[N+](C)(C)C)O1 (racemic) [Compound 10, (±)-cis, trans-6-[(2-heptadecyl-1,3-dioxolane-4-yl)methoxy]-N,N,N-trimethyl-1-hexanaminium 4-methylbenzenesulfonate] |  | 

Further lines, the compound ahead of its results:

Row | SMILES | IC50 [1, 4] | % Inhibition of the hypotension induced by PAF ([2]; compound 5 mg/Kg) | also measured
10 | CCCCCCCCCCCCCCCCCC1OCC(COC(=O)CCCCC[n+]2cscc2C)O1 (racemic) [Compound 26, (±)-cis, trans-3-[6-[(2-heptadecyl-1,3-dioxolane-4-yl)methoxy]-6-oxohexyl]-4-methylthiazolium 4-methylbenzenesulfonate] | 2.5 µM |  | 
11 | CCCCCCCCCCCCCCCCCC1OCC(COCCCCCC[n+]2csc3ccccc32)O1 (racemic) [Compound 12, (±)-cis, trans-3-[6-[(2-heptadecyl-1,3-dioxolane-4-yl)methoxy]hexyl]benzothiazolium4-methylbenzenesulfonate] | 16 µM |  | 
12 | CCCCCCCCCCCCCCCCCC1OCC(COC(=O)CCCCC[n+]2ccsc2)O1 (racemic) [Compound 27, (±)-cis, trans-3-[6-[(2-heptadecyl-1,3-dioxolane-4-yl)methoxy]-6-oxohexyl]thiazolium 4-methylbenzenesulfonate] | 1.3 µM | 100% | % Inhibition of the hypotension induced by PAF ([2]; compound 0.63 mg/Kg): 28%; % Inhibition of the hypotension induced by PAF ([2]; compound 1.25 mg/Kg): 75%; ED50 [3]: 0.16 mg/kg
13 | CCCCCCCCCCCCCCCCCC1OCC(COP(=O)([O-])OCC[n+]2ccccc2)O1 (racemic) [Compound 48, (±)-cis, trans-1-[2-[[[(2-heptadecyl-1,3-dioxolane-4yl)methoxy]hydroxyphosphinyl]oxy]ethyl]pyridinium hydroxide, inner salt] | 180 µM |  | 
14 | CCCCCCCCCCCCCCCCCC1OCC(COP(=O)([O-])OCC[N+](C)(C)C)O1 (racemic) [Compound 47, (±)-cis, trans-2-[[[(2-heptadecyl-1,3-dioxolane-4-yl)methoxy]hydroxyphosphinyl]oxy]-N,N,N-trimethylethanaminium hydroxide, inner salt] | 180 µM |  | 
15 | CCCCCCCCCCCCCCCCCC1OCC(COC(=O)CCCCC[n+]2cccc3ccccc32)O1 (racemic) [Compound 32, (±)-cis, trans-1-[6-[(2-heptadecyl-1,3-dioxolane-4-yl)methoxy]-6-oxohexyl]quinolinium 4-methylbenzenesulfonate] | 2.5 µM | 80% | 
16 | CCCCCCCCCCCCCCCCCC1OCC(COCCCC[n+]2ccsc2)O1 (racemic) [Compound 5, (±)-cis, trans-3-[4-[(2-heptadecyl-1,3-dioxolane-4-yl)methoxy]butyl)thiazolium iodide] |  |  | IC50 [1]: 5 µM
17 | CCCCCCCCCCCCCCCCCC1OCC(COC(=O)CCCCC[n+]2ccccc2)O1 (racemic) [Compound 24, (±)-cis, trans-1-[6-[(2-heptadecyl-1,3-dioxolane-4-yl)methoxy]-6-oxohexyl]pyridinium 4-methylbenzenesulfonate] | 2.6 µM | 72% | % Inhibition of the hypotension induced by PAF ([2]; compound 2.5 mg/Kg): 58%
18 | CCCCCCCCCCCCCCCCCC1OCC(COC(=O)CCCCC[N+](C)(C)C)O1 (racemic) [Compound 31, (±)-cis, trans-6-[(2-heptadecyl-1,3-dioxolane-4-yl)methoxy]-6-oxo-N,N,N-trimethyl-1-hexanaminium 4-methylbenzenesulfonate] | 7.8 µM |  | 
19 | CCCCCCCCCCCCCCCCCC1OCC(COCCCCCC[n+]2cccc3ccccc32)O1 (racemic) [Compound 11, (±)-cis, trans-1-[6-(2-heptadecyl-1,3-dioxolane-4-yl)methoxy]hexyl]quinolinium 4-methylbenzenesulfonate] | 3.9 µM |  | 
20 | CCCCCCCCCCCCCCCCCC1OCC(COCCCC[n+]2ccccc2)O1 (racemic) [Compound 1, (±)-cis, trans-1[4-[(2-heptadecyl-1,3-dioxolane-4-yl)methoxy]butyl]piridinium 4-methylbenzenesulphonate] | 5.5 µM | 24% | 

— patent US5070139A, “2,4-disubstituted 1,3-dioxolanes” (J. Uriach & Cia. S.A., priority 1987, dated 1991)
